The record followed here is paper PMC4573335 (Biochemistry, 2015).

The target in this assay is T1, hALAS2 (human erythroid-specific 5-aminolevulinate synthase) (Homo sapiens, UniProt P22557).
T1 sequence (P22557 80-587): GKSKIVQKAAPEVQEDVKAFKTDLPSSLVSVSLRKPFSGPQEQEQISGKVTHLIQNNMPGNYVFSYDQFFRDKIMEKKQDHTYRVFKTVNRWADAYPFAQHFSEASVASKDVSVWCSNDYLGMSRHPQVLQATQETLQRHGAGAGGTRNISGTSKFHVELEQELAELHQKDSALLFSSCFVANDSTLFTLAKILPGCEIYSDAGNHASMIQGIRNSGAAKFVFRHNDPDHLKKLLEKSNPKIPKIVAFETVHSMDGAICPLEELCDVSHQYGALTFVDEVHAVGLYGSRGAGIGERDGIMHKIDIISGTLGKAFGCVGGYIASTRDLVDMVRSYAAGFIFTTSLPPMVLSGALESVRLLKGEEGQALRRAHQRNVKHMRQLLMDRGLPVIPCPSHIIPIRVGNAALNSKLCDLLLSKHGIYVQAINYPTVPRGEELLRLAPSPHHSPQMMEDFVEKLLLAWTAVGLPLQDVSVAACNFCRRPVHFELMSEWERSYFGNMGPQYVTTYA
Description: absorption spectroscopy, A420/A330 ratio. To be noted: PLP holoenzyme. Type of assay: binding.

For `NCC(=O)O` [glycine], the “absorption spectroscopy, A420/A330 ratio (PLP-glycine aldimine)” value is “In all cases, the A420/A330 ratio was increased upon reaction with glycine”.
